Reference: patent US20080306056A1, “PYRAZOLE-DERIVATIVES AS FACTOR Xa INHIBITORS” (SANOFI-AVENTIS DEUTSCHLAND GMBH, priority 2002, published 2008)

Target: T1, human factor Xa (Homo sapiens, UniProt P00742)
T1 construct: 25 μl human factor Xa (Enzyme Research Laboratories, Inc; South Bend, Ind.); purchased Enzyme Research Laboratories, Inc; South Bend, Ind
Test: Factor Xa assay (chromogenic, purified enzyme)
Format: biochemical
Conditions: inhibition constant for factor Xa; chromogenic substrate S-2765 140 μM, enzyme 0.5 nM, 25° C., pH 7.8; Ki=IC50/{1+(substrate concentration/Km)}; read-out: Ki(FXa)
How it was run: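 Human factor Xa (0.5 nM) pre-incubated 10 min with compound in TBS-PEG/DMSO, then S-2765 (140 μM) added; initial hydrolysis rate read at 405 nm, 25°C. IC50 by linear regression of relative rate vs log concentration; Ki = IC50/(1+[S]/Km).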

T1 sequence (P00742 235-488 limits assumed): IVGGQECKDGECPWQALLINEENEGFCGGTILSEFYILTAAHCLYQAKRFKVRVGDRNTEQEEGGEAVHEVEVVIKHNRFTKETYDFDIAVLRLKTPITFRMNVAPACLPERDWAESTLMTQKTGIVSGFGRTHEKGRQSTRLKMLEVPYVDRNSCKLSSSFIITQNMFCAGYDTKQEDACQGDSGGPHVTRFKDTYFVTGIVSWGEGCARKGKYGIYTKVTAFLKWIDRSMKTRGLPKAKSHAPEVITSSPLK
T1 sequence (P00742 41-179 partner limits assumed): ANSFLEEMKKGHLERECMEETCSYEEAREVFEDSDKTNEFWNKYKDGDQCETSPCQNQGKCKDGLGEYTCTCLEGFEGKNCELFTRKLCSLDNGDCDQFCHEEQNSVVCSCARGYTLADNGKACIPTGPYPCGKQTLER

Row | Structure (SMILES) | Ki [nM]
1 | CC(C)N1CCC(NC(=O)c2cc(C(=O)N3CCC(CO)CC3)nn2Cc2cc(-c3ccc(Cl)s3)on2)CC1 [Example 37, 2-[5-(5-Chloro-thiophen-2-yl)-isoxazol-3-ylmethyl]-5-(4-hydroxymethyl-piperidine-1-carbonyl)-2H-pyrazole-3-carboxylic acid (1-isopropyl-piperidin-4-yl)-amide] | 195
2 | CC(C)N1CCC(NC(=O)c2cc(C(=O)N3CCCC3)nn2Cc2cc(-c3ccc(Cl)s3)on2)CC1 [Example 48, 2-[5-(5-Chloro-thiophen-2-yl)-isoxazol-3-ylmethyl]-5-(pyrrolidine-1-carbonyl)-2H-pyrazole-3-carboxylic acid (1-isopropyl-piperidin-4-yl)-amide] | 183
3 | COCCNC(=O)c1cc(C(=O)NC2CCN(C(C)C)CC2)n(Cc2cc(-c3ccc(Cl)s3)on2)n1 [Example 47, 1-[5-(5-Chloro-thiophen-2-yl)-isoxazol-3-ylmethyl]-1H-pyrazole-3,5-dicarboxylic acid 5-[(1-isopropyl-piperidin-4-yl)-amide] 3-[(2-methoxy-ethyl)-amide]] | 86
4 | CC(C)N1CCC(NC(=O)c2cc(C(=O)N(CCO)CCO)nn2Cc2cc(-c3ccc(Cl)s3)on2)CC1 [Example 88, 1-[5-(5-Chloro-thiophen-2-yl)-isoxazol-3-ylmethyl]-1H-pyrazole-3,5-dicarboxylic acid 3-[bis-(2-hydroxy-ethyl)-amide] 5-[(1-isopropyl-piperidin-4-yl)-amide]] | 106
5 | CC(C)N1CCC(NC(=O)c2cc(-c3ccc(Cl)s3)nn2Cc2cc(-c3ccc(Cl)s3)on2)CC1 [Example 5, 5-(5-Chloro-thiophen-2-yl)-2-[5-(5-chloro-thiophen-2-yl)-isoxazol-3-ylmethyl]-2H-pyrazole-3-carboxylic acid (1-isopropyl-piperidin-4-yl)-amide] | 300
6 | CC(C)OC(=O)CNC(=O)c1cc(C(=O)NC2CCN(C(C)C)CC2)n(Cc2cc(-c3ccc(Cl)s3)on2)n1 [Example 90, {[1-[5-(5-Chloro-thiophen-2-yl)-isoxazol-3-ylmethyl]-5-(1-isopropyl-piperidin-4-ylcarbamoyl)-1H-pyrazole-3-carbonyl]-amino}-acetic acid isopropyl ester] | 240
7 | CC(C)N1CCC(NC(=O)c2cc(C(=O)O)nn2Cc2cc(-c3ccc(Cl)s3)on2)CC1 [Example 21, 1-[5-(5-Chloro-thiophen-2-yl)-isoxazol-3-ylmethyl]-5-(1-isopropyl-piperidin-4-ylcarbamoyl)-1H-pyrazole-3-carboxylic acid] | 214
8 | CC(C)N1CCC(NC(=O)c2cc(C(=O)NC3CCC3)nn2CC(=O)Nc2ccc(Cl)cn2)CC1 [Example 52, 1-[(5-Chloro-pyridin-2-ylcarbamoyl)-methyl]-1H-pyrazole-3,5-dicarboxylic acid 3-cyclobutylamide 5-[(1-isopropyl-piperidin-4-yl)-amide]] | 16
9 | CC(C)N1CCC(NC(=O)c2cc(C(=O)O)n(Cc3cc(-c4ccc(Cl)s4)on3)n2)CC1 [Example 85, 2-[5-(5-Chloro-thiophen-2-yl)-isoxazol-3-ylmethyl]-5-(1-isopropyl-piperidin-4-ylcarbamoyl)-2H-pyrazole-3-carboxylic acid] | 185
10 | CC(C)N1CCC(NC(=O)c2nn(Cc3cc(-c4ccc(Cl)s4)on3)cc2C#N)CC1 [Example 56, 1-[5-(5-Chloro-thiophen-2-yl)-isoxazol-3-ylmethyl]-4-cyano-1H-pyrazole-3-carboxylic acid (1-isopropyl-piperidin-4-yl)-amide] | 144
11 | CCOC(=O)c1cc(C(=O)NC2CCN(C(C)C)CC2)n(Cc2cc(-c3ccc(Cl)s3)on2)n1 [Example 23, 1-[5-(5-Chloro-thiophen-2-yl)-isoxazol-3-ylmethyl]-5-(1-isopropyl-piperidin-4-ylcarbamoyl)-1H-pyrazole-3-carboxylic acid ethyl ester] | 144
12 | CC(C)N1CCC(CNC(=O)c2cc(-c3cccs3)nn2Cc2cc(-c3ccc(Cl)s3)on2)CC1 [Example 17, 2-[5-(5-Chloro-thiophen-2-yl)-isoxazol-3-ylmethyl]-5-thiophen-2-yl-2H-pyrazole-3-carboxylic acid (1-isopropyl-piperidin-4-ylmethyl)-amide] | 155
13 | CC(C)N1CCC(NC(=O)c2c(C#N)c(-c3cccs3)nn2Cc2ccc(Cl)cc2)CC1 [Example 19, 2-(4-Chloro-benzyl)-4-cyano-5-thiophen-2-yl-2H-pyrazole-3-carboxylic acid (1-isopropyl-piperidin-4-yl)-amide] | 274
14 | CC(C)N1CCC(NC(=O)c2cc(C(=O)N3CCC4(CCCC4)CC3)nn2Cc2cc(-c3ccc(Cl)s3)on2)CC1 [Example 38, 5-(8-Aza-spiro[4.5]decane-8-carbonyl)-2-[5-(5-chloro-thiophen-2-yl)-isoxazol-3-ylmethyl]-2H-pyrazole-3-carboxylic acid (1-isopropyl-piperidin-4-yl)-amide] | 932
15 | CC(C)N1CCC(NC(=O)c2cc(C(=O)NCCCO)nn2Cc2cc(-c3ccc(Cl)s3)on2)CC1 [Example 62, 1-[5-(5-Chloro-thiophen-2-yl)-isoxazol-3-ylmethyl]-1H-pyrazole-3,5-dicarboxylic acid 3-[(3-hydroxy-propyl)-amide] 5-[(1-isopropyl-piperidin-4-yl)-amide]] | 80
16 | CC(C)N1CCC(NC(=O)c2cc(C(=O)NS(C)(=O)=O)nn2Cc2cc(-c3ccc(Cl)s3)on2)CC1 [Example 82, 2-[5-(5-Chloro-thiophen-2-yl)-isoxazol-3-ylmethyl]-5-methanesulfonylaminocarbonyl-2H-pyrazole-3-carboxylic acid (1-isopropyl-piperidin-4-yl)-amide] | 184
17 | CC(C)N1CCC(NC(=O)c2cc(C(=O)NCCO)nn2Cc2cc(-c3ccc(Cl)s3)on2)CC1 [Example 27, 1-[5-(5-Chloro-thiophen-2-yl)-isoxazol-3-ylmethyl]-1H-pyrazole-3,5-dicarboxylic acid 3-[(2-hydroxy-ethyl)-amide] 5-[(1-isopropyl-piperidin-4-yl)-amide]] | 88
18 | CC(C)N1CCC(NC(=O)c2cc(C(C)(C)C)nn2Cc2cc(-c3ccc(Cl)s3)on2)CC1 [Example 9, 5-tert-Butyl-2-[5-(5-chloro-thiophen-2-yl)-isoxazol-3-ylmethyl]-2H-pyrazole-3-carboxylic acid (1-isopropyl-piperidin-4-yl)-amide] | 332
19 | CC(C)N1CCC(NC(=O)c2cc(C(=O)NCC(N)=O)nn2Cc2cc(-c3ccc(Cl)s3)on2)CC1 [Example 60, 1-[5-(5-Chloro-thiophen-2-yl)-isoxazol-3-ylmethyl]-1H-pyrazole-3,5-dicarboxylic acid 3-carbamoylmethyl-amide 5-[(1-isopropyl-piperidin-4-yl)-amide]] | 56

Continued by falling Ki, values first:

Row | Ki [nM] | Structure (SMILES)
20 | 134 | CC(C)N1CCC(NC(=O)c2cc(C(=O)N3CC[C@H]3C(=O)O)nn2Cc2cc(-c3ccc(Cl)s3)on2)CC1 [Example 63, 1-[1-[5-(5-Chloro-thiophen-2-yl)-isoxazol-3-ylmethyl]-5-(1-isopropyl-piperidin-4-ylcarbamoyl)-1H-pyrazole-3-carbonyl]-(2S)-azetidine-2-carboxylic acid]
21 | 99 | CC(C)N1CCC(NC(=O)c2c(C#N)cnn2Cc2cc(-c3ccc(Cl)s3)on2)CC1 [Example 55, 2-[5-(5-Chloro-thiophen-2-yl)-isoxazol-3-ylmethyl]-4-cyano-2H-pyrazole-3-carboxylic acid (1-isopropyl-piperidin-4-yl)-amide]
22 | 84 | CC(C)N1CCC(NC(=O)c2cc(C(=O)N3CCCOCC3)nn2Cc2cc(-c3ccc(Cl)s3)on2)CC1 [Example 42, 2-[5-(5-Chloro-thiophen-2-yl)-isoxazol-3-ylmethyl]-5-([1,4]oxazepane-4-carbonyl)-2H-pyrazole-3-carboxylic acid (1-isopropyl-piperidin-4-yl)-amide]
23 | 73 | COC(=O)c1cc(C(=O)NC2CCN(C(C)C)CC2)n(Cc2cc(-c3ccc(Cl)s3)on2)n1 [Example 20, 1-[5-(5-Chloro-thiophen-2-yl)-isoxazol-3-ylmethyl]-5-(1-isopropyl-piperidin-4-ylcarbamoyl)-1H-pyrazole-3-carboxylic acid methyl ester]
24 | 63 | CC(C)N1CCC(NC(=O)c2cc(C(=O)N3CCC3)nn2Cc2cc(-c3ccc(Cl)s3)on2)CC1 [Example 77, 5-(Azetidine-1-carbonyl)-2-[5-(5-chloro-thiophen-2-yl)-isoxazol-3-ylmethyl]-2H-pyrazole-3-carboxylic acid (1-isopropyl-piperidin-4-yl)-amide]
25 | 32 | CC(C)N1CCC(NC(=O)c2cc(-c3cccs3)n(Cc3cc(-c4ccc(Cl)s4)on3)n2)CC1 [Example 2, 1-[5-(5-Chloro-thiophen-2-yl)-isoxazol-3-ylmethyl]-5-thiophen-2-yl-1H-pyrazole-3-carboxylic acid (1-isopropyl-piperidin-4-yl)-amide]
26 | 30 | CC(C)N1CCC(NC(=O)c2cc(-c3cccs3)nn2Cc2cc(-c3ccc(Cl)s3)on2)CC1 [Example 1, 2-[5-(5-Chloro-thiophen-2-yl)-isoxazol-3-ylmethyl]-5-thiophen-2-yl-2H-pyrazole-3-carboxylic acid (1-isopropyl-piperidin-4-yl)-amide]
27 | 11 | O=C(Nc1ccc(N2CCOCC2=O)cc1)c1cc(-c2ccco2)n(Cc2cc(-c3ccc(Cl)s3)on2)n1 [Example 99, 1-[5-(5-Chloro-thiophen-2-yl)-isoxazol-3-ylmethyl]-5-furan-2-yl-1H-pyrazole-3-carboxylic acid [4-(3-oxo-morpholin-4-yl)-phenyl]-amide]
28 | 10 | COC(=O)c1cc(C(=O)NC2CCN(C(C)C)CC2)n(CC(=O)Nc2ccc(Cl)cn2)n1 [Example 50, 1-[(5-Chloro-pyridin-2-ylcarbamoyl)-methyl]-5-(1-isopropyl-piperidin-4-ylcarbamoyl)-1H-pyrazole-3-carboxylic acid methyl ester]
